Reference: patent publication US4698352A, “4-oxo-1,4-dihydronicotinic acid derivatives, salts thereof, and antibacterial agents containing the same” (Toyama Chemical Co., Ltd., priority 1982, dated 1987)
≈ marks a conversion by molar mass, not a printed value. Read-outs that look alike come from different tables or passages of the source.

What was measured:
Assay in all cases: Antibacterial activity (MIC), agar dilution
Format in all cases: cell-based
E. coli GN5482** = conditions: Escherichia coli, 20 h; E. coli GN5482, cephalospolinase-producing; 10^6 cells per ml; read-out: MIC
Description: (§1) The amount of bacteria inoculated was 10^4 cells per plate (10^6 cells per ml).
(§2) ** Cephalospolinase-producing bacteria

Pro. vulgaris GN76** = conditions: Proteus vulgaris
Description: as §1, §2

Ps. aeruginosa GN918** = conditions: Pseudomonas aeruginosa, Ps. aeruginosa GN918, cephalospolinase-producing, 10^6 cells per ml
Description: as §1, §2

Kl. pneumoniae Y-50 = conditions: Klebsiella pneumoniae, Y50, 20 h, 10^6 cells per ml, 37° C.
Description: as §1

E. coli TK-111 = conditions: Escherichia coli, TK111, 20 h, E. coli TK-111; 10^6 cells per ml; 37° C., 20 hours; read-out: MIC
Description: as §1

Ps. aeruginosa S-68 = conditions: Pseudomonas aeruginosa, S68; Ps. aeruginosa S-68; 10^6 cells per ml; 37° C., 20 hours; read-out: MIC
Description: as §1

Ent. cloacae IID977 = conditions: Enterobacter cloacae, IID977, 20 h
Description: as §1

Kl. pneumoniae Y-41 = conditions: Klebsiella pneumoniae, Y41, 10^6 cells per ml, 37° C., 20 hours, read-out: MIC
Description: as §1

Pro. morganii T-216 = conditions: Morganella morganii, 37° C.
Description: as §1

Pro. vulgaris GN3027 = conditions: Proteus vulgaris, GN3027, 20 h, Pro. vulgaris GN3027; 10^6 cells per ml; 37° C., 20 hours; read-out: MIC
Description: as §1

St. aureus FDA209P = conditions: Staphylococcus aureus, FDA209P, 20 h, St. aureus FDA209P; 10^6 cells per ml; 37° C., 20 hours; read-out: MIC
Description: as §1

Pro. mirabilis T-111 = conditions: Proteus mirabilis, 37° C.
Description: as §1

Aci. antitratus A-6 = conditions: 20 h, Aci. antitratus A-6; 10^6 cells per ml; 37° C., 20 hours; read-out: MIC
Description: as §1

Ps. aeruginosa IFO3445 = conditions: Pseudomonas aeruginosa; Ps. aeruginosa IFO3445; 10^6 cells per ml; 37° C., 20 hours; read-out: MIC
Description: as §1

E. coli NIHJ JC-2 = conditions: Escherichia coli, NIHJJC2, 20 h
Description: as §1

St. aureus F-137* = conditions: Staphylococcus aureus, 20 h
Description: as §1
(§3) * Penicillinase-producing bacteria

E. coli TK-3* = conditions: Escherichia coli, 20 h, E. coli TK-3, penicillinase-producing; 10^6 cells per ml; read-out: MIC
Description: as §1, §3

Kl. pneumoniae Y-4* = conditions: Klebsiella pneumoniae, 20 h, Kl. pneumoniae Y-4, penicillinase-producing; 10^6 cells per ml; read-out: MIC
Description: as §1, §3

Ps. aeruginosa GN3379* = conditions: Pseudomonas aeruginosa, 20 h; Ps. aeruginosa GN3379, penicillinase-producing; 10^6 cells per ml; read-out: MIC
Description: as §1, §3

[1] = 20 h, Pro. vulgaris GN76, cephalospolinase-producing, 10^6 cells per ml, read-out: MIC
[2] = Ent. cloacae IID977, 10^6 cells per ml, 37° C., 20 hours, read-out: MIC
[3] = E. coli NIHJ JC-2, 10^6 cells per ml, 37° C., 20 hours, read-out: MIC
[4] = St. aureus F-137, penicillinase-producing, 10^6 cells per ml, read-out: MIC
[5] = T111, 10^6 cells per ml, 20 hours, read-out: MIC
[6] = T216, 10^6 cells per ml, 20 hours, read-out: MIC

SMILES	MIC (E. coli GN5482**) [µg/mL]	MIC (Pro. vulgaris GN76**; [1]) [µg/mL]	MIC (Kl. pneumoniae Y-50; read-out: MIC) [µg/mL]	MIC (E. coli TK-111) [µg/mL]	MIC (Ps. aeruginosa S-68) [µg/mL]	MIC (Ent. cloacae IID977; [2]) [µg/mL]	MIC (Kl. pneumoniae Y-41) [µg/mL]	MIC (Pro. morganii T-216; T216, 20 h, 10^6 cells per ml) [µg/mL]	MIC (Pro. vulgaris GN3027) [µg/mL]	MIC (St. aureus FDA209P) [µg/mL]	MIC (Aci. antitratus A-6) [µg/mL]	MIC (Ps. aeruginosa IFO3445) [µg/mL]	MIC (E. coli NIHJ JC-2; [3]) [µg/mL]	MIC (St. aureus F-137*; [4]) [µg/mL]	MIC (E. coli TK-3*) [µg/mL]	MIC (Kl. pneumoniae Y-4*) [µg/mL]	MIC (Ps. aeruginosa GN3379*) [µg/mL]	MIC (Ps. aeruginosa GN918**; 20 h, read-out: MIC) [µg/mL]	MIC (Pro. mirabilis T-111; [5]) [µg/mL]	MIC (Pro. morganii T-216; [6]) [µg/mL]	further results
COc1ccc(-c2cc(=O)c(C(=O)O)cn2-c2ccc(O)cc2C)cc1F	≤ 0.05	0.39 (≈ 1.06 µM)	0.78 (≈ 2.11 µM)	≤ 0.05	6.25 (≈ 16.9 µM)	0.39 (≈ 1.06 µM)	1.56 (≈ 4.22 µM)	1.56 (≈ 4.22 µM)	0.1 (≈ 0.271 µM)	0.1 (≈ 0.271 µM)	0.39 (≈ 1.06 µM)	12.5 (≈ 33.8 µM)	0.39 (≈ 1.06 µM)	0.1 (≈ 0.271 µM)	0.39 (≈ 1.06 µM)	1.56 (≈ 4.22 µM)	12.5 (≈ 33.8 µM)	–	–	–	MIC (Ps. aeruginosa GN918**; GN918, 20 h): 1.56 µg/mL (≈ 4.22 µM); MIC (Pro. mirabilis T-111; T111, 20 h, 10^6 cells per ml): 1.56 µg/mL (≈ 4.22 µM)
O=C(O)c1cn(-c2ccc(F)cc2)c(C=Cc2cccnc2)cc1=O [drawing 205]	0.2 (≈ 0.595 µM)	1.56 (≈ 4.64 µM)	–	0.78 (≈ 2.32 µM)	12.5 (≈ 37.2 µM)	3.13 (≈ 9.31 µM)	6.25 (≈ 18.6 µM)	6.25 (≈ 18.6 µM)	0.39 (≈ 1.16 µM)	3.13 (≈ 9.31 µM)	3.13 (≈ 9.31 µM)	25 (≈ 74.3 µM)	1.56 (≈ 4.64 µM)	3.13 (≈ 9.31 µM)	3.13 (≈ 9.31 µM)	6.25 (≈ 18.6 µM)	25 (≈ 74.3 µM)	12.5 (≈ 37.2 µM)	12.5 (≈ 37.2 µM)	–	MIC (Kl. pneumoniae Y-50): 0.78 µg/mL (≈ 2.32 µM)
CC(=O)Oc1ccc(-n2cc(C(=O)OCCN(C)C)c(=O)cc2-c2ccc3c(ccn3C)c2)c(F)c1	≤ 0.05	0.78 (≈ 1.59 µM)	0.39 (≈ 0.793 µM)	≤ 0.05	6.25 (≈ 12.7 µM)	0.78 (≈ 1.59 µM)	3.13 (≈ 6.37 µM)	3.13 (≈ 6.37 µM)	0.1 (≈ 0.203 µM)	≤ 0.05	0.39 (≈ 0.793 µM)	6.25 (≈ 12.7 µM)	0.1 (≈ 0.203 µM)	≤ 0.05	0.39 (≈ 0.793 µM)	3.13 (≈ 6.37 µM)	12.5 (≈ 25.4 µM)	1.56 (≈ 3.17 µM)	1.56 (≈ 3.17 µM)	–	–
COc1ccc(-c2ccc(-c3cc(=O)c(C(=O)O)cn3-c3ccc(O)cc3)cc2)s1	≤ 0.05	0.39 (≈ 0.93 µM)	0.78 (≈ 1.86 µM)	0.1 (≈ 0.238 µM)	3.13 (≈ 7.46 µM)	0.78 (≈ 1.86 µM)	1.56 (≈ 3.72 µM)	–	0.2 (≈ 0.477 µM)	≤ 0.05	0.1 (≈ 0.238 µM)	6.25 (≈ 14.9 µM)	0.39 (≈ 0.93 µM)	≤ 0.05	0.39 (≈ 0.93 µM)	1.56 (≈ 3.72 µM)	3.13 (≈ 7.46 µM)	0.78 (≈ 1.86 µM)	0.78 (≈ 1.86 µM)	0.39 (≈ 0.93 µM)	–
O=C(O)c1cn(-c2ccc(O)cc2F)c(C2CC=CCC2)cc1=O (stereo not drawn)	0.39 (≈ 1.18 µM)	0.78 (≈ 2.37 µM)	0.78 (≈ 2.37 µM)	0.39 (≈ 1.18 µM)	12.5 (≈ 38 µM)	3.13 (≈ 9.5 µM)	6.25 (≈ 19 µM)	–	0.1 (≈ 0.304 µM)	0.39 (≈ 1.18 µM)	3.13 (≈ 9.5 µM)	12.5 (≈ 38 µM)	1.56 (≈ 4.74 µM)	0.39 (≈ 1.18 µM)	3.13 (≈ 9.5 µM)	6.25 (≈ 19 µM)	12.5 (≈ 38 µM)	1.56 (≈ 4.74 µM)	12.5 (≈ 38 µM)	3.13 (≈ 9.5 µM)	–
O=C(O)c1cn(-c2ccc(F)cc2)c(-c2ccc(Br)s2)cc1=O	0.39 (≈ 0.989 µM)	–	3.13 (≈ 7.94 µM)	1.56 (≈ 3.96 µM)	25 (≈ 63.4 µM)	–	12.5 (≈ 31.7 µM)	–	0.39 (≈ 0.989 µM)	1.56 (≈ 3.96 µM)	1.56 (≈ 3.96 µM)	50 (≈ 127 µM)	–	–	6.25 (≈ 15.9 µM)	25 (≈ 63.4 µM)	25 (≈ 63.4 µM)	100 (≈ 254 µM)	–	6.25 (≈ 15.9 µM)	MIC (Pro. vulgaris GN76**; GN76, 20 h): 3.13 µg/mL (≈ 7.94 µM); MIC (Ent. cloacae IID977): 12.5 µg/mL (≈ 31.7 µM); MIC (Pro. mirabilis T-111; T111, 20 h, 10^6 cells per ml): 12.5 µg/mL (≈ 31.7 µM); MIC (E. coli NIHJ JC-2): 3.13 µg/mL (≈ 7.94 µM); MIC (St. aureus F-137*): 3.13 µg/mL (≈ 7.94 µM)
